# Results taken from patent US20080306040A1, “Antibacterial amide macrocycles VII” (priority 2005, published 2008).
# Where a name gives a salt, the structure may show the parent alone. Read-outs that look alike come from different tables or passages of the source.
# Assays:
# S. aureus 133 [1] = assay: Minimum inhibitory concentration (MIC), S. aureus 133; assay type: cell-based
# Experimental: (§1) Determination of the Minimum Inhibitory Concentration (MIC)
# (§2) The minimum inhibitory concentration (MIC) is the minimum concentration of an antibiotic with which the growth of a test microbe is inhibited over 18-24 h. The inhibitor concentration can thereby be determined by standard microbiological methods (see, for example, The National Committee for Clinical Laboratory Standards. Methods for dilution antimicrobial susceptibility tests for bacteria that grow aerobically; approved standard-fifth edition. NCCLS document M7-A5 [ISBN 1-56238-394-9]. NCCLS, 940 West Valley Road, Suite 1400, Wayne, Pa. 19087-1898 USA, 2000). The MIC of the compounds of the invention is determined in the liquid dilution test on the 96-well microtiter plate scale. The bacterial microbes are cultivated in a minimal medium (18.5 mM Na2HPO4, 5.7 mM KH2PO4, 9.3 mM NH4Cl, 2.8 mM MgSO4, 17.1 mM NaCl, 0.033 μg/ml of thiamine hydrochloride, 1.2 μg/ml of nicotinic acid, 0.003 μg/ml of biotin, 1% glucose, 25 μg/ml of each proteinogenic amino acid with the exception of phenylalanine; [H.-P. Kroll; unpublished]) with addition of 0.4% BH broth (test medium). In the case of Enterococcus faecium L4001, heat-inactivated fetal calf serum (FCS; GibcoBRL, Germany) is added to the test medium in a final concentration of 10%. Overnight cultures of the test microbes are diluted to an OD578 of 0.001 (to 0.01 in the case of enterococci) in fresh test medium, and incubated 1:1 with dilutions of the test substances (1:2 dilution steps) in test medium (200 μl final volume). The cultures are incubated at 37° C. for 18-24 hours; enterococci in the presence of 5% CO2.
# (§3) The lowest substance concentration in each case at which no visible bacterial growth occurs any longer is defined as the MIC.
# (§4) Alternative Method for Determining the Minimum Inhibitory Concentration (MIC)
# The minimum inhibitory concentration (MIC) is the minimum concentration of an antibiotic with which the growth of a test microbe is inhibited over 18-24 h. The inhibitor concentration can thereby be determined by standard microbiological methods with modified medium in an agar dilution test (see, for example, The National Committee for Clinical Laboratory Standards. Methods for dilution anti-microbial susceptibility tests for bacteria that grow aerobically; approved standard-fifth edition. NCCLS document M7-A5 [ISBN 1-56238-394-9]. NCCLS, 940 West Valley Road, Suite 1400, Wayne, Pa. 19087-1898 USA, 2000). The bacterial microbes are cultivated on 1.5% agar plates which contain 20% defibrinated horse blood. The test microbes, which are incubated overnight on Columbia blood agar plates (Becton-Dickinson), are diluted in PBS, adjusted to a microbe count of about 5×10^5 microbes/ml and placed dropwise (1-3 μl) on test plates. […]
# [2] = biological target: S. aureus 133 Translation; assay: S. aureus in vitro transcription-translation assay (firefly luciferase, S30 extract); assay type: biochemical; conditions: 50% inhibition of the translation of firefly luciferase
# Source text: In Vitro Transcription-Translation with S. aureus Extracts
# Construction of an S. aureus Luciferase Reporter Plasmid
# In order to construct a reporter plasmid which can be used in an in vitro transcription-translation assay from S. aureus the plasmid pBESTluc (Promega Corporation, USA) is used. The E. coli tac promoter present in this plasmid in front of the firefly luciferase is replaced with the capA1 promoter with corresponding Shine-Dalgarno sequence from S. aureus. The primers CAPF or 5′-[…]-[…]-3′ and CAPRev 5′-[…]-3′ are used for this. The primer CAPFor contains the capA1 promoter, the ribosome binding site and the 5′ region of the luciferase gene. After PCR using pBESTluc as template it is possible to isolate a PCR product which contains the firefly luciferase gene with the fused capA1 promoter. This is, after restriction with ClaI and HindIII, ligated into the vector pBESTluc which has likewise been digested with ClaI and HindIII. The resulting plasmid p1a can be replicated in E. coli and be used as template in the S. aureus in vitro transcription-translation test.
# Preparation of S30 Extracts from S. aureus
# Six litres of BHI medium are inoculated with a 250 ml overnight culture of an S. aureus strain and allowed to grow at 37° C. up to an OD600 nm of 2-4. The cells are harvested by centrifugation and washed in 500 ml of cold buffer A (10 mM Tris acetate, pH 8.0, 14 mM magnesium acetate, 1 mM DTT, […]). After renewed centrifugation, the cells are washed in 250 ml of cold buffer A with 50 mM KCl, and the resulting pellets are frozen at −20° C. for 60 min. The pellets are thawed on ice in 30 to 60 min and taken up to a total volume of 99 ml in buffer B (10 mM Tris acetate, pH 8.0, 20 mM magnesium acetate, 1 mM DTT, 50 mM KCl). 1.5 ml portions of lysostaphin (0.8 mg/ml) in buffer B are provided in 3 precooled centrifuge cups and each mixed with 33 ml of the cell suspension. The samples are incubated at 37° C., for 45 to 60 min shaking occasionally, before 150 μl of a 0.5 M DTT solution are added. The lysed cells are centrifuged at 30 000×g and 4° C. for 30 min. The cell pellet is taken up in buffer B and then centrifuged again under the same conditions, and the collected supernatants are combined. The supernatants are centrifuged again under the same conditions, and 0.25 volumes of buffer C (670 mM Tris acetate, pH 8.0, 20 mM magnesium acetate, 7 mM Na3 phosphoenolpyruvate, 7 mM DTT, 5.5 mM ATP, 70 μM amino acids (complete from Promega), 75 μg of pyruvate kinase (Sigma, Germany))/ml are added to the upper ⅔ of the supernatant. […]
# The inhibition of protein biosynthesis of the compounds can be shown in an in vitro transcription-translation assay. […] The activity of the resulting luciferase can be detected by luminescence measurement. […]
# S. aureus T17 = assay: Minimum inhibitory concentration (MIC), biphenomycin-resistant S. aureus T17; assay type: cell-based; conditions: for MIC: Staphylococcus aureus, T17
# Experimental: as §1, §2, §3, §4
# The minimum inhibitory concentration (MIC) is the minimum concentration of an antibiotic with which the growth of a test microbe is inhibited over 18-24 h. The inhibitor concentration can thereby be determined by standard microbiological methods with modified medium in an agar dilution test (see, for example, The National Committee for Clinical Laboratory Standards. Methods for dilution anti-microbial susceptibility tests for bacteria that grow aerobically; approved standard-fifth edition. NCCLS document M7-A5 [ISBN 1-56238-394-9]. NCCLS, 940 West Valley Road, Suite 1400, Wayne, Pa. 19087-1898 USA, 2000). The bacterial microbes are cultivated on 1.5% agar plates which contain 20% defibrinated horse blood. The test microbes, which are incubated overnight on Columbia blood agar plates (Becton-Dickinson), are diluted in PBS, adjusted to a microbe count of about 5×10^5 microbes/ml and placed dropwise (1-3 μl) on test plates. The test substances comprise different dilutions of the test substances (1:2 dilution steps). The cultures are incubated at 37° C. in the presence of 5% CO2 for 18-24 hours.
# The lowest substance concentration in each case at which no visible bacterial growth occurs any longer is defined as the MIC and is reported in μg/ml.
# The S. aureus strain T17 is isolated in vivo. CFW1 mice are infected intraperitoneally with 4×10^7 S. aureus 133 cells per mouse. 0.5 h after the infection, the animals are treated intravenously with 50 mg/kg of biphenomycin B. The kidneys are removed from the surviving animals on day 3 after the infection. […]
# S. aureus 133 [3] = assay: Systemic infection with S. aureus 133 (mouse sepsis model); assay type: in vivo; conditions: female CFW1 mice, i.p. infection, i.v. therapy 30 minutes after infection, survival over 6 days
# S. aureus RN4220Bi^R = assay: MIC against biphenomycin-resistant S. aureus RN4220Bi^R; assay type: cell-based; conditions: colony isolated in vitro from antibiotic-containing plate
# Experimental: (§5) The S. aureus strain RN4220Bi^R is isolated in vitro. For this purpose, 100 μl portions of an S. aureus RN4220 cell suspension (about 1.2×10^8 cfu/ml) are plated out on an antibiotic-free agar plate (18.5 mM Na2HPO4, 5.7 mM KH2PO4, 9.3 mM NH4Cl, 2.8 mM MgSO4, 17.1 mM NaCl, 0.033 μg/ml of thiamine hydrochloride, 1.2 μg/ml of nicotinic acid, 0.003 μg/ml of biotin, 1% glucose, 25 μg/ml of each proteinogenic amino acid with the addition of 0.4% BH broth and 1% agarose) and on an agar plate containing 2 μg/ml of biphenomycin B (10×MIC), and incubated at 37° C. overnight. Whereas about […] cells grow on the antibiotic-free plate, about 100 colonies grow on the antibiotic-containing plate, corresponding to a resistance rate of 1×10^−5. Some of the colonies grown on the antibiotic-containing plate are tested for the biphenomycin B MIC. One colony with a MIC of >50 μM is selected for further use, and the strain is referred to as RN4220Bi^R.
# S. aureus RN4220 = assay: Spontaneous resistance rate, S. aureus RN4220; assay type: cell-based; conditions: agar plate containing 2 μg/ml of biphenomycin B (10×MIC), 37° C. overnight
# Experimental: The spontaneous resistance rates for the compounds of the invention are determined as follows: the bacterial microbes are cultivated in 30 ml of a minimal medium (18.5 mM Na2HPO4, 5.7 mM KH2PO4, 9.3 mM NH4Cl, 2.8 mM MgSO4,17.1 mM NaCl, 0.033 μg/ml of thiamine hydrochloride, 1.2 μg/ml of nicotinic acid, 0.003 μg/ml of biotin, 1% glucose, 25 μg/ml of each proteinogenic amino acid with the addition of 0.4% BH broth) at 37° C. over-night, centrifuged at 6000×g for 10 min and resuspended in 2 ml of a phosphate-buffered physiological NaCl solution (about 2×10^9 microbes/ml). […] The resulting colonies (cfu) are counted.
# as §5, with “Some of the colonies grown on the antibiotic-containing plate are tested for the biphenomycin B MIC. One colony with a MIC of >50 μM is selected for further use, and the strain is referred to as RN4220Bi^R.” left out
# [4] = Staphylococcus aureus, 133, read-out: MIC S. aureus 133
Structure (SMILES),IC50 [2] [nM],MIC (S. aureus T17; biphenomycin-resistant strain) [µg/mL],MIC (S. aureus 133 [1]; [4]) [µg/mL],other results
"NCCC[C@H](N)CNC(=O)C[C@H](CCCN)NC(=O)C[C@@H]1Cc2cccc(c2)-c2ccc(O)c(c2)C[C@H](N)C(=O)N[C@@H](CCCN)C(=O)N1 [Example 1, (3S)-6-Amino-3-({[(8S11,S14S)-14-amino-11-(3-aminopropyl)-17-hydroxy-10,13-dioxo-9,12-diazatricyclo[14.3.1.1^2,6]henicosa-1(20),2(21),3,5,16,18-hexaen-8-yl]acetyl{amino)-N-[(2S)-2,5-diaminopentyl]hexanamidepentahydrochloride]",350,2,,"MIC (S. aureus 133 [1]; Staphylococcus aureus, 133; read-out: MIC S. aureus 133): 2 µg/mL"
"NCCC[C@H](NC(=O)C[C@@H]1Cc2cccc(c2)-c2ccc(O)c(c2)C[C@H](N)C(=O)N[C@@H](CCCN)C(=O)N1)C(=O)NCCN [Example 2, N^2-{[(8S,11S,14S)-14-Amino-11-(3-aminopropyl)-17-hydroxy-10,13-dioxo-9,12-diazatricyclo[14.3.1.1^2,6]henicosa-1(20), 2(21),3,5,5,16,18-hexaen-8-yl]acetyl}-N-(2-aminoethyl)-L-ornithinamide tetrahydrochloride]",,,,therapeutic activity ED100 (S. aureus 133 [3]): 1.25 mg/kg
"NCCC[C@H](N)CNC(=O)C[C@@H]1Cc2cccc(c2)-c2ccc(O)c(c2)C[C@H](N)C(=O)N[C@@H](CCCN)C(=O)N1 [Example 5, 2-[(8S,11S,14S)-14-Amino-11-(3-aminopropyl)-17-hydroxy-10,13-dioxo-9,12-diazatricyclo[14.3.1.1^2,6]henicosa-1(20),2(21),3,5,16,18-hexaen-8-yl]-N-[(2S)-2,5-diaminopentyl]acetamide tetrahydrochloride]",700,2,2,
"NCCC[C@H](N)CNC(=O)C[C@@H](N)CCCNC(=O)[C@H](CCCN)NC(=O)C[C@@H]1Cc2cccc(c2)-c2ccc(O)c(c2)C[C@H](N)C(=O)N[C@@H](CCCN)C(=O)N1 [Example 7, (3S)-3-Amino-6-[(N^2-{[(8S,11S,14S)-14-amino-11-(3-aminopropyl)-17-hydroxy-10,13-dioxo-9,12-diazatricyclo[14.3.1.1^2,6]henicosa-1(20), 2(21), 3,5,16,18-hexaen-8-yl]acetyl}-L-ornithyl)amino]-N-[(2S)-2,5-diaminopentyl]hexanamide hexahydrochloride]",200,2,2,
"NC[C@H](O)C[C@@H]1NC(=O)[C@@H](N)Cc2cc(ccc2O)-c2ccc(O)c(c2)C[C@@H](C(=O)O)NC1=O [Biphenomycin B, biphenomycin B, reference compound]",1500,,,MIC S. aureus 133 (S. aureus 133 [1]): <0.03 µg/mL; MIC of selected colony (strain RN4220Bi^R) (S. aureus RN4220Bi^R): > 50 µM; resistance rate (S. aureus RN4220): 1×10^−5; MIC S. aureus T17 (S. aureus T17; biphenomycin-resistant strain): >32 µg/mL; MIC of selected colony (strain T17) (S. aureus T17; colony isolated in vivo from kidney of treated mice): > 50 µM
